Test results from US20250051319A1 (AUGUSTINE THERAPEUTICS, priority 2021, published 2025).

Columns and labels:
[1] = target: catalytic domain 2 (CD2) of HDAC6 (Homo sapiens (Human), UniProt Q9UBN7); assay: Cellular target engagement assay - NanoBRET; type: cell-based; conditions: NanoLuc-HDAC6(CD2) in HEK293T cells, 2 hours, read-out: IC50 (HDAC6(CD2) interaction)
[2] = target: human full-length recombinant HDAC6 (Homo sapiens (Human), UniProt Q9UBN7); assay: HDAC6 enzymatic activity assay (Reaction Biology Corporation, RHKKAc fluorogenic peptide); type: biochemical; conditions: Reaction Biology Corporation protocol, RHKKAc fluorogenic peptide 10 μM; read-out: HDAC6 biochem
Description: (§1) Dose response testing of HDAC6 and HDAC 1 were run at Reaction Biology Corporation (RBC). Inhibition of HDAC enzymes was performed using N-terminal GST tagged human full-length recombinant HDAC6 (H88-30G, SignalChem) and C-terminal FLAG His tag human full-length recombinant HDAC1 produced in insect cells (KDA-21-365, RBC). Enzyme reactions were run in 50 mM Tris-HCl, pH8.0, 137 mM NaCl, 2.7 mM KCl, and 1 mM MgCl2 with 1 mg/ml BSA, 1% DMSO freshly added. 2× enzyme was delivered in the wells of the reaction plate except for the “no enzyme” control wells. In the latter, buffer was added. Compounds in 100% DMSO were delved into the enzyme mixture by acoustic technology (Echo550). Plates are spun down and compounds were incubation with the enzyme for 10 min at room temperature. 2× Fluorogenic peptide from p53 residues 379-382 (RHKKAc, 10 μM final concentration) was added in all wells to initiate the reaction, followed by 1 h incubation at 30° C. Developer containing Trichostatin A was added to stop the reaction and generate fluorescent color. A kinetic measurement was carried out for 20 min with 5 min interval on the Envision plate reader (Perkin Elmer, Ex/Em=360/460). End point reading i.e., plateau of the development reaction was used for analysis. Data was reported by RBC as percentage enzyme activity. Percentage inhibition was calculated by subtracting percentage enzyme activity from 100. IC50 values were calculated using GraphPad Prism 9 based on the log(inhibitor) vs. response—Variable slope (four parameters) equation.

[3] = target: human full-length recombinant HDAC1 (Homo sapiens (Human), UniProt Q13547); assay: HDAC1 enzymatic activity assay (Reaction Biology Corporation, RHKKAc fluorogenic peptide); type: biochemical; conditions: Reaction Biology Corporation protocol, RHKKAc fluorogenic peptide 10 μM; read-out: HDAC1 biochem
Description: as §1

Chain of human full-length recombinant HDAC6 (Q9UBN7 whole entry): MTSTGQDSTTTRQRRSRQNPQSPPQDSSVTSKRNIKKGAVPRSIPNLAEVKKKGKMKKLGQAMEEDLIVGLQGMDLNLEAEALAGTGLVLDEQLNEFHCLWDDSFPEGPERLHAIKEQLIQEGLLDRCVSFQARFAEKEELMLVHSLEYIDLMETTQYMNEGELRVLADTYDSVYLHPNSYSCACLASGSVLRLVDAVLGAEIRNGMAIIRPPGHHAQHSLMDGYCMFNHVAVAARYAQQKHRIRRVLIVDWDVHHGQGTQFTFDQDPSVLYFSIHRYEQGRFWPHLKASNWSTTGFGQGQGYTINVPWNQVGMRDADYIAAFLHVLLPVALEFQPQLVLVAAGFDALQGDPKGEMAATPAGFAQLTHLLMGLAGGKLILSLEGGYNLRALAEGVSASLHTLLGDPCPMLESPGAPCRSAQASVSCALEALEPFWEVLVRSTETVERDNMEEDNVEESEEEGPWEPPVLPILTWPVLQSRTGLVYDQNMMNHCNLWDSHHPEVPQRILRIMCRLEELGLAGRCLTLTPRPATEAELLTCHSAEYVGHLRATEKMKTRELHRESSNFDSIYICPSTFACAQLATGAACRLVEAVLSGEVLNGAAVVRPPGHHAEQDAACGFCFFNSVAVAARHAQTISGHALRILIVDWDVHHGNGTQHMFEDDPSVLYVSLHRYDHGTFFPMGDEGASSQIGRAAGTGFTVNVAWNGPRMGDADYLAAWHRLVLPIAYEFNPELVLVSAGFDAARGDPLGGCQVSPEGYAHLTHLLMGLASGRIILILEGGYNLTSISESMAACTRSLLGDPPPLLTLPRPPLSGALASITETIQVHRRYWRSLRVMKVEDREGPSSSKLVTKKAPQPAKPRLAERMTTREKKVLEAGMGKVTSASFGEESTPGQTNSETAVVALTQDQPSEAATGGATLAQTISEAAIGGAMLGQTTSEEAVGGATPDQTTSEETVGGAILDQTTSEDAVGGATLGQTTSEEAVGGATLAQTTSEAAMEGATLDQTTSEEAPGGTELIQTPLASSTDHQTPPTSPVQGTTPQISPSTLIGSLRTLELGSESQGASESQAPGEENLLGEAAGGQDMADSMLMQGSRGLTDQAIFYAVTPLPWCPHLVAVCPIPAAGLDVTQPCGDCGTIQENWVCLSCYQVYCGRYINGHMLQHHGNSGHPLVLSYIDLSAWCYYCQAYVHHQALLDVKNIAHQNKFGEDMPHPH
Chain of catalytic domain 2 (CD2) of HDAC6 (Q9UBN7 482-800): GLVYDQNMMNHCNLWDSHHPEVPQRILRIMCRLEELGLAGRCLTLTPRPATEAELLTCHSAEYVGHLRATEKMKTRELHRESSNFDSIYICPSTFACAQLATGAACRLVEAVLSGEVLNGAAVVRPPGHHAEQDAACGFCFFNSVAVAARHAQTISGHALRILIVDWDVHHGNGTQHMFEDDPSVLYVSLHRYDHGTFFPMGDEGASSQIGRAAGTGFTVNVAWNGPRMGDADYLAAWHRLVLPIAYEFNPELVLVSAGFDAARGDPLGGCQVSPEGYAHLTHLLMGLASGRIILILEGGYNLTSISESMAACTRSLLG
Chain of human full-length recombinant HDAC1 (Q13547 whole entry): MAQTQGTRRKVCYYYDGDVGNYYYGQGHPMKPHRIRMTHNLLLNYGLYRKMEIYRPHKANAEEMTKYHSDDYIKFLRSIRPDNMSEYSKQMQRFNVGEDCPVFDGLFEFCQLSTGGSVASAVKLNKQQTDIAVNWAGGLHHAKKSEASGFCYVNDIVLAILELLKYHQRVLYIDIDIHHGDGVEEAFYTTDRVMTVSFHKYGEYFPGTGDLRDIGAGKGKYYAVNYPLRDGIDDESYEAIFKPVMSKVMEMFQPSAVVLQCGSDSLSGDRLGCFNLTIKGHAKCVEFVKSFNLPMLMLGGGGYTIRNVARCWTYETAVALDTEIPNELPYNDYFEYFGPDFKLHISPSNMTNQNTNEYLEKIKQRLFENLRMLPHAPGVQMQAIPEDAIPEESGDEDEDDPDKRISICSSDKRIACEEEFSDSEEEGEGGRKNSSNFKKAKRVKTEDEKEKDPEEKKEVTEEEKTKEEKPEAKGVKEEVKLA

IC50 [1] [nM]	IC50 [2] [nM]	IC50 [3] [nM]	Compound
≤ 100	≤ 100	> 10000	Cn1cc2c(SCC(=O)c3ccc(CNC(=O)CO)s3)nc(C(F)(F)F)nc2n1 [Compound 61, 2-hydroxy-N-((5-(2-((2-methyl-6-(trifluoromethyl)-2H-pyrazolo[3,4-d]pyrimidin-4-yl)thio)acetyl)thiophen-2-yl)methyl)acetamide]
100 to 500	≤ 100		Cn1cc2c(SCC(=O)c3ccc(CNC(=O)CO)s3)nc(C(F)F)nc2n1 [Compound 69, N-((5-(2-((6-(difluoromethyl)-2-methyl-2H-pyrazolo[3,4-d]pyrimidin-4-yl)thio)acetyl)thiophen-2-yl)methyl)-2-hydroxyacetamide]
		> 10000	COc1cc2c(SCC(=O)c3ccc(CNC(=O)CO)s3)nc(C)nc2cc1F [Compound 75, N-((5-(2-((7-fluoro-6-methoxy-2-methylquinazolin-4-yl)thio)acetyl)thiophen-2-yl)methyl)-2-hydroxyacetamide]
100 to 500	≤ 100		COc1cc(F)c2nc(C)nc(SCC(=O)c3ccc(CNC(=O)CO)s3)c2c1 [Compound 108, N-((5-(2-((8-fluoro-6-methoxy-2-methylquinazolin-4-yl)thio)acetyl)thiophen-2-yl)methyl)-2-hydroxyacetamide]
500 to 1000	≤ 100		COc1ccc2nc(C)nc(SCC(=O)c3ccc(CN(C)C(=O)CO)s3)c2c1 [Compound 109, 2-hydroxy-N-((5-(2-((6-methoxy-2-methylquinazolin-4-yl)thio)acetyl)thiophen-2-yl)methyl)-N-methylacetamide]
100 to 500	≤ 100		CN(Cc1ccc(C(=O)CSc2nc(C(F)(F)F)nc3nn(C)cc23)s1)C(=O)CO [Compound 116, 2-hydroxy-N-methyl-N-((5-(2-((2-methyl-6-(trifluoromethyl)-2H-pyrazolo[3,4-d]pyrimidin-4-yl)thio)acetyl)thiophen-2-yl)methyl)acetamide]
≤ 100	≤ 100		Cc1nc(SCC(=O)c2ccc(CNC(=O)CO)s2)c2ncccc2n1 [Compound 153, 2-hydroxy-N-((5-(2-((2-methylpyrido[3,2-d]pyrimidin-4-yl)thio)acetyl)thiophen-2-yl)methyl)acetamide]
≤ 100	≤ 100		COc1cc2c(SCC(=O)c3ccc(CNC(=O)CO)s3)nc(C(F)(F)F)nc2cn1 [Compound 154, 2-hydroxy-N-((5-(2-((6-methoxy-2-(trifluoromethyl)pyrido[3,4-d]pyrimidin-4-yl)thio)acetyl)thiophen-2-yl)methyl)acetamide]
≤ 100	≤ 100		COc1ccc2nc(C)nc(SCC(=O)c3ccc(CNC(=O)CO)s3)c2c1F [Compound 158, N-((5-(2-((5-fluoro-6-methoxy-2-methylquinazolin-4-yl)thio)acetyl)thiophen-2-yl)methyl)-2-hydroxyacetamide]
≤ 100	≤ 100		COc1cc2c(SCC(=O)c3ccc(CN(C)C(=O)CO)s3)nc(C(F)(F)F)nc2cn1 [Compound 159, 2-hydroxy-N-((5-(2-((6-methoxy-2-(trifluoromethyl)pyrido[3,4-d]pyrimidin-4-yl)thio)acetyl)thiophen-2-yl)methyl)-N-methylacetamide]
≤ 100	≤ 100		CCOc1cnc2nc(C)nc(SCC(=O)c3ccc(CNC(=O)CO)s3)c2c1 [Compound 160, N-((5-(2-((6-ethoxy-2-methylpyrido[2,3-d]pyrimidin-4-yl)thio)acetyl)thiophen-2-yl)methyl)-2-hydroxyacetamide]
≤ 100	≤ 100		COc1cnc2nc(C(F)F)nc(SCC(=O)c3ccc(CNC(=O)CO)s3)c2c1 [Compound 164, N-((5-(2-((2-(difluoromethyl)-6-methoxypyrido[2,3-d]pyrimidin-4-yl)thio)acetyl)thiophen-2-yl)methyl)-2-hydroxyacetamide]
